Entries after “also recorded” stand apart in the source; their conditions may differ. Read-outs that look alike come from different tables or passages of the source.
How the values were obtained:
integrin αVβ3 [1] = biological target: T1, integrin αVβ3 (Homo sapiens, UniProt P05106+P06756); assay: biochemical; type: binding; conditions: for inhibition: read-out: Maximal Inhibition Achieved (converted)
T1 construct: purchased R&D Systems Inc. (Minneapolis, MN, USA)

integrin αVβ3 [2] = biological target: T1, integrin αVβ3; assay: biochemical; type: binding; conditions: for inhibition: at 22 mM (highest concentration), read-out: Maximal Inhibition Achieved (converted)
integrin α5β1 = biological target: T2, integrin α5β1 (Homo sapiens, UniProt P05556+P08648); assay: biochemical; type: binding; conditions: for inhibition: at 22 mM (highest concentration), read-out: Maximal Inhibition Achieved (converted)
T2 construct: purchased R&D Systems Inc. (Minneapolis, MN, USA)

integrin αllbβ3 = biological target: T3, integrin αllbβ3 (Homo sapiens, UniProt P05106+P08514); assay: biochemical; type: binding
T3 construct: purchased Enzyme Research Laboratories Ltd. (Swansea, UK)

[3] = cited from earlier work
integrin αVβ3 [4] = biological target: T1, integrin αVβ3; type: binding; conditions: immobilized SARS-CoV-2 S-protein; maximal inhibition, range up to 22 mM
integrin αVβ3 [5] = biological target: T1, integrin αVβ3; conditions: at 11 mM; previously developed assay; cited from earlier work
MC3T3-E1 cells = conditions: biosensoric measurement, concentration-dependent, via blocking RGD-specific integrins; cited from earlier work
[6] = design: method as in earlier work; conditions: not marked *; octanol/water; cited from earlier work
[7] = integrin αVβ3, immobilized RGD polymer, at 22 mM (highest concentration)
[8] = integrin αVβ3, immobilized RGD polymer, ligand range 0.1-22 mM
[9] = integrin αVβ3, immobilized vitronectin
[10] = integrin αVβ3, immobilized vitronectin, ligand range 0.1-22 mM
[11] = integrin α5β1, immobilized RGD polymer
[12] = integrin α5β1, immobilized RGD polymer, ligand range 0.1-22 mM
[13] = integrin αllbβ3, immobilized fibrinogen, at 22 mM, activation = higher absorbance than negative control, n. d. = not detected
[14] = integrin αllbβ3, immobilized fibrinogen, ligand range 0.1-22 mM

T1 sequence (P06756 31-992): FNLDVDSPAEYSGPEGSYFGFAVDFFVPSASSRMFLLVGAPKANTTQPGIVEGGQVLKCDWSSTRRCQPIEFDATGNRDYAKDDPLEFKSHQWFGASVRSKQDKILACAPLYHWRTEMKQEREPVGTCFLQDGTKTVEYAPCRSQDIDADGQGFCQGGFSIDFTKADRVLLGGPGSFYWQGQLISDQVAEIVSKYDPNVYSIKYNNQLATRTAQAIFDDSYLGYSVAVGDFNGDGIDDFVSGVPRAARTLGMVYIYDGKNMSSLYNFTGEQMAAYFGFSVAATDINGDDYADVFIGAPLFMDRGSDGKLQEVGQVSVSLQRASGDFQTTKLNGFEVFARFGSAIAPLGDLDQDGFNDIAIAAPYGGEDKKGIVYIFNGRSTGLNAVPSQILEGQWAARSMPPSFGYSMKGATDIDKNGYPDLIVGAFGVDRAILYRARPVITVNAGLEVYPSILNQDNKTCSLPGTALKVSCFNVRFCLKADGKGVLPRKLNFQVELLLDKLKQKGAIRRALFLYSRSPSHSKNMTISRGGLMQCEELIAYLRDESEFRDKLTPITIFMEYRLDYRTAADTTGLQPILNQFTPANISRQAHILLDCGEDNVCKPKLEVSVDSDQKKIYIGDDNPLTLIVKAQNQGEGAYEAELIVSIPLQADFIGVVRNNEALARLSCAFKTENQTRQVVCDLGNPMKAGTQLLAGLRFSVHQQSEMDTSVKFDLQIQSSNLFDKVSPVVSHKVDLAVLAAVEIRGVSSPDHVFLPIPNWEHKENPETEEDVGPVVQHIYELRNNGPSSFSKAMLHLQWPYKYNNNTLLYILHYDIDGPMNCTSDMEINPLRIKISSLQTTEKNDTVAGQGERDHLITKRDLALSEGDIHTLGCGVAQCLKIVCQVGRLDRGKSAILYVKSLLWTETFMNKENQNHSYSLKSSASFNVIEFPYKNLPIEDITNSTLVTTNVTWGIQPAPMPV
T1 sequence (P05106 27-718): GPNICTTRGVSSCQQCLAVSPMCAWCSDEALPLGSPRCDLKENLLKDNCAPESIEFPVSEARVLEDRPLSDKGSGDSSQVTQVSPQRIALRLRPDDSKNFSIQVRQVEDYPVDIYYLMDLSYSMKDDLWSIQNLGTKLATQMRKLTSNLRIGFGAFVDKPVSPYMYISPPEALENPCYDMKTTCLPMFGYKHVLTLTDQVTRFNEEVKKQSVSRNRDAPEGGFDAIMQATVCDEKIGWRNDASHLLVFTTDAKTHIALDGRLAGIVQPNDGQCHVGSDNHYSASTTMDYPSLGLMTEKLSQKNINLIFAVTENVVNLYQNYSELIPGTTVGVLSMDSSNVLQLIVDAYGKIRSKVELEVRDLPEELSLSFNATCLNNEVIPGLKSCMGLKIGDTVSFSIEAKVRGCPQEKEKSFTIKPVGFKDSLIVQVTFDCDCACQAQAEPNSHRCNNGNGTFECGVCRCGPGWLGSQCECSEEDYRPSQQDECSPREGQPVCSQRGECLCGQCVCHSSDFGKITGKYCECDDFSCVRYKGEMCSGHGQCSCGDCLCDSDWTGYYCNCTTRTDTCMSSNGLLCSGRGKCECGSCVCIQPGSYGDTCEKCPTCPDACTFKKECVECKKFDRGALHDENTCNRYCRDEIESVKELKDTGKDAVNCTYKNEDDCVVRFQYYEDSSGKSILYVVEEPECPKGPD
T3 sequence (P08514 32-887 limits assumed): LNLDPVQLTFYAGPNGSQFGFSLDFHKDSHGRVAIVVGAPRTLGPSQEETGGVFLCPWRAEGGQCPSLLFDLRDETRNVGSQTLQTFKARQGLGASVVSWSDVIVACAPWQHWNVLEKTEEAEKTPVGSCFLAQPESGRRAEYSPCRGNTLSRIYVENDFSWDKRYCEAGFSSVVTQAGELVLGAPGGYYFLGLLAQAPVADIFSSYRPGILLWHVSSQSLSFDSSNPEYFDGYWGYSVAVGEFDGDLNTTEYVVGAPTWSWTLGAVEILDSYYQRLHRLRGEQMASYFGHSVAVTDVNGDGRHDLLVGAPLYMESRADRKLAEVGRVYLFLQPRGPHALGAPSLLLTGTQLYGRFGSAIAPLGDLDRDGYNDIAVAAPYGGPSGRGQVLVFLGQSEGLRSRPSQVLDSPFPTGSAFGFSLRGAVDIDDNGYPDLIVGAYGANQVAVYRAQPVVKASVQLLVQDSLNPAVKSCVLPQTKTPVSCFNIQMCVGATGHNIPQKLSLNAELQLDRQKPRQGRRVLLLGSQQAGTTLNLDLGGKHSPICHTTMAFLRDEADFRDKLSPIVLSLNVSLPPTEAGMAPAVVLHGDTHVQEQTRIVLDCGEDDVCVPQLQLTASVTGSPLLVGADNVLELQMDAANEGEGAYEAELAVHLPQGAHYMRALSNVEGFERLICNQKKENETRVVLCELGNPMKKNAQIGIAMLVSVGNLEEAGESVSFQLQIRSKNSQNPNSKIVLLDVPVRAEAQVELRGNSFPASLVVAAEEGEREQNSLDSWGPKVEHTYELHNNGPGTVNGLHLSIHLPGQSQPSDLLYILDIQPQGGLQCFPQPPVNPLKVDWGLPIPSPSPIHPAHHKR
T3 sequence (P08514 891-1039 partner limits assumed): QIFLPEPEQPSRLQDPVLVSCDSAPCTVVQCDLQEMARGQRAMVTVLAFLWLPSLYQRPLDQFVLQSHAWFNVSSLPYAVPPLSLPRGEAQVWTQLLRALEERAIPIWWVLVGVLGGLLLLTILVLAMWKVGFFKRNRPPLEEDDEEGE
T3 sequence (P05106 27-788): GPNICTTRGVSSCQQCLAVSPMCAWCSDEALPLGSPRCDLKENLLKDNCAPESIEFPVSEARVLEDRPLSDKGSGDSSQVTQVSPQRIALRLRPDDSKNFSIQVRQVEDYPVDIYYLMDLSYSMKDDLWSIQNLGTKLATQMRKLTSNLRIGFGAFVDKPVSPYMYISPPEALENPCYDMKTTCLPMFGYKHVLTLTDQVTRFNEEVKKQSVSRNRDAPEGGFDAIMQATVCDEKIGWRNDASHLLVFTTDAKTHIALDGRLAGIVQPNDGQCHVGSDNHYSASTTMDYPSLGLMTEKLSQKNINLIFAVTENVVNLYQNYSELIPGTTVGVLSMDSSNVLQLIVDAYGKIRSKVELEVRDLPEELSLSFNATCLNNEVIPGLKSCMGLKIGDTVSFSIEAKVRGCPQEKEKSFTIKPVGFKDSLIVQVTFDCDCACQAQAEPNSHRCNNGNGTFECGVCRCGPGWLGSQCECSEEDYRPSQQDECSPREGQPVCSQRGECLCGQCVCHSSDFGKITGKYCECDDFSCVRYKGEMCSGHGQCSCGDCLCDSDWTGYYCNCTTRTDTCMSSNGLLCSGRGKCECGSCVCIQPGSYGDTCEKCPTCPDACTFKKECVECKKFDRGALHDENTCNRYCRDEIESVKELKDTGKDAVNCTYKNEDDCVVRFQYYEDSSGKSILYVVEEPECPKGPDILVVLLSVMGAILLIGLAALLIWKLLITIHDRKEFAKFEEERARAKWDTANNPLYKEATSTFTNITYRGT

Compound | inhibition (integrin αVβ3 [1]; [7]) | IC50 (integrin αVβ3 [1]; [8]) | inhibition (integrin αVβ3 [2]; [9]) | IC50 (integrin αVβ3 [2]; [10]) | inhibition (integrin α5β1; [11]) | IC50 (integrin α5β1; [12]) | IC50 (integrin αllbβ3; [14]) | further results
CC(=O)NCC(=O)O [Acetylglycine] | 46.8% | > 22 mM | 58.5% | 9.2 ± 1 mM | 98.9% | 5.8 ± 0.9 mM | > 22 mM | Maximal Inhibition Achieved (integrin αllbβ3; [13]): activation; Maximal Inhibition Achieved (integrin αllbβ3; integrin αllbβ3, immobilized fibrinogen, at 22 mM, activation = higher absorbance than negative control, n. d. = not detected, listed as acetylglycine): high activation
NCP(=O)(O)O [Aminomethylphosphonic acid (AMPA), aminomethylphosphonic acid] | 95.9% | 1.3 ± 0.2 mM | 75.3% | 1.5 ± 0.4 mM | 44.8% | > 22 mM | > 22 mM | Maximal Inhibition Achieved (integrin αllbβ3; [13]): activation; Maximal Inhibition Achieved (integrin αllbβ3; integrin αllbβ3, immobilized fibrinogen, at 22 mM, activation = higher absorbance than negative control, n. d. = not detected, listed as AMPA): activation; also recorded: activated; Water Solubility ([3]; 20 °C): 56 (20 °C) g/L
NCC(=O)O [Glycine] |  |  |  |  |  |  |  | IC50 (integrin αVβ3 [1]): > 22 mM; IC50 (integrin αVβ3 [2]): > 22 mM; IC50 (integrin α5β1): > 22 mM; Maximal Inhibition Achieved (integrin α5β1): >22 (22.1 ± 3.3%); IC50 (integrin αllbβ3): > 22 mM
O=C(O)CNCP(=O)(O)O [Glyphosate, N-(phosphonomethyl)glycine] | 100% | 2.7 ± 0.5 mM | 44.8% | > 22 mM | 85.7% | 9.7 ± 3.2 mM | > 22 mM | inhibition (integrin αllbβ3; integrin αllbβ3, immobilized fibrinogen, at 22 mM, activation = higher absorbance than negative control, n. d. = not detected, read-out: Maximal Inhibition Achieved): 40.2%; Inhibition of binding of αVβ3 to S-protein (integrin αVβ3 [4]): 35.6 ± 4.4%; Inhibition of RGD-binding capability of αVβ3 integrin (integrin αVβ3 [5]): 96.3 ± 3.2%; Adhesion of MC3T3-E1 cells to RGD motif (MC3T3-E1 cells): significantly reduced; Water Solubility ([3]; pH 7.0): 157 g/L
O=C(O)CNCC(=O)O [Iminodiacetic acid] | 24.6% | > 22 mM | 52.4% | 11.5 ± 1.5 mM | 8% | > 22 mM | > 22 mM | Water Solubility ([3]; 5 °C): 24.3 (5 °C) g/L
CC(=O)N(CC(=O)O)CP(=O)(O)O [N-acetylglyphosate] |  | > 22 mM | 47.5% | > 22 mM | 15% | > 22 mM | > 22 mM | inhibition at 22000 µM (integrin αVβ3 [1]; integrin αVβ3, immobilized RGD polymer, at 22 mM (highest concentration), read-out: Maximal Inhibition Achieved): 40.6%; Water Solubility ([3]; temperature or pH not given): slight
CNCC(=O)O [Sarcosine] | 35% | > 22 mM | 37.9% | > 22 mM | 13.4% | > 22 mM | > 22 mM | Clog Po/w [6]: −3.2; Water Solubility ([3]; 20 °C): 89.1 (20 °C) g/L
Glyphosate isopropylammonium salt |  |  |  |  |  |  |  | Clog Po/w [6]: −4.16; Water Solubility ([3]; temperature or pH not given): 1050 g/L
